Assays:
isolated rabbit atrium = experiment: Isolated rabbit atrium, increase in functional refractory period (antiarrhythmic); settings: Oryctolagus cuniculus; 10^-5 molar
Experimental: The compounds of the invention are useful as antiarrhythmic agents because of their ability to alleviate cardiac arrhythmias. […] 198] wherein the compounds effect an increase in the functional refractory period. Compounds are dissolved in Krebs-Henseleit solution, and the percent change in the functional refractory period is monitored with an oscilloscope. […] Similarly at a concentration of 10^-^6 molar 1-(3-dimethylaminopropyl)-2-(p-bromophenyl)-4,5,6,7-tetrahydroindole hydrochloride and 1-(2-methylaminoethyl)-2-phenyl-1,4,5,6,7,8-hexahydrocyclohepta[b]pyrrole hydrochloride each effect a 150% increase in the functional refractory period.

central nervous system = experiment: Mouse observation procedure of S. Irwin, central nervous system depressant effects (tranquilizer); type: in vivo; settings: male COBS mice, behavior and reflex depression, muscle relaxation, read-out: minimum effective dose (MED)/Kilogram of body weight
Experimental: The compounds of the invention are useful as tranquilizers because of their depressant effects on the central nervous system. The depressant effects on the central nervous system were evaluated according to the mouse observation procedure of S. Irwin, Psychopharmacologia, 13, 222 (1968). Male COBS mice are dosed with the drug, and its effects on behavior and reflex depression together with muscle relaxation determined by the degree of deviation from control scores, with activity expressed in terms of minimum effective dose (MED). The effectiveness of compounds of the invention as tranquilizers is illustrated in Table I below.

[1] = tested on: carrageenin-induced rat paw edema; experiment: Carrageenin-induced rat paw edema antiinflammatory assay; type: in vivo; settings: 200 mg/kg of body weight
Text: The compounds of this invention are useful as antiinflammatory agents because of their ability to suppress inflammation in mammals. […] Exp. Biol. Med. III, 544 (1962)].

[2] = tested on: spontaneous hypertensive rat; experiment: Lowering of blood pressure in the spontaneous hypertensive rat, indirect tail cuff method; type: in vivo; settings: 100 mg/kg of body weight
Experimental: The compounds of this invention are also useful as antihypertensive agents because of their ability to lower blood pressure in mammals. […] 135. For example, at a dose of 100 mg/kg of body weight, the compounds shown in Table III below effect the corresponding decrease in systolic blood pressure.

Row | Structure (SMILES) | activation at 10 µM (isolated rabbit atrium) | minimal effective dose (central nervous system) | inhibition in vivo at 200 mg/kg [1] | decrease in systolic blood pressure [2]
1 | CCN(CC)CCCn1c(-c2ccccc2)cc2c1CCCCC2.Cl [Example 41, 1-(3-diethylaminopropyl)-2-phenyl-1,4,5,6,7,8-hexahydrocyclohepta[b]pyrrole hydrochloride] | 264% | 50 mg/kg | 50% | 49 mm Hg
2 | CN(C)CCCn1c(-c2ccccc2)cc2c1CCCCC2.Cl [Example 40, 1-(3-dimethylaminopropyl)-2-phenyl-1,4,5,6,7,8-hexahydrocyclohepta[b]pyrrole hydrochloride] | 275% | 25 mg/kg |  | 50 mm Hg
